This note sets out measurements from the supplement of paper PMC11208160.

A short description of one series: recombinant barcode read abundance after kanamycin selection (control-corrected) (log10(CPM+1)); higher = more efficient recombination; sequences stand for … in AGTGCAGAGAAAATCGGCCAGTTTTCTCTGCCTGCAGTCCGCATGCCGT…ATTTATGCAGCGGACTGCCTTTCTCCCAAAGTGATAAACCGGACAGTATCATGGACCGGTTTTCCCGGTAATCCGTATTTGCAAGGTTGGTTTCACT; site = the 11-nt target. On the procedure: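 Same pooled E. coli target screen (IS621 bridge recombinase, kanamycin selection, control-corrected CPM, mean of 2 biological replicates). Here the two core-binding nucleotides of the LTG and RTG of the bridge RNA target-binding loop are mutated. Target and donor CT cores are held constant, and the other 9 guide positions match the target. The target is read from the library oligo sequence. Molecule = full bridge RNA written as DNA: nt 1-80 from the library oligo, rest WT scaffold.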
In the case of “AAACACAAATGGGTTCTAACCTGTTGCCTAG [AAACACACTAG_LTGcore_AA_RTGcore_CT] (site AAACACACTAG) (LTG core: AA, RTG core: CT)”, the “recombinant barcode read abundance (log10)” value came to 0.0621.
Consider “AAACACAATTGGGTTCTAACCTGTTGCCTAG [AAACACACTAG_LTGcore_AT_RTGcore_CT] (site AAACACACTAG) (LTG core: AT, RTG core: CT)”, for which the “recombinant barcode read abundance (log10)” value was 0.375.
“AAACACACCTGGGTTCTAACCTGTTGCCTAG [AAACACACTAG_LTGcore_CC_RTGcore_CT] (site AAACACACTAG) (LTG core: CC, RTG core: CT)”: the “recombinant barcode read abundance (log10)” value is 0.633.
For “AAACACACGTGGGTTCTAACCTGTTGCCTCG [AAACACACTAG_LTGcore_CG_RTGcore_CG] (site AAACACACTAG) (LTG core: CG, RTG core: CG)”, the “recombinant barcode read abundance (log10)” value turned out to be 0.296.
Regarding “AAACACACTTGGGTTCTAACCTGTTGCCTAT [AAACACACTAG_LTGcore_CT_RTGcore_AT] (site AAACACACTAG) (LTG core: CT, RTG core: AT)”, the “recombinant barcode read abundance (log10)” value worked out at 0.39.
On the same count and under the same terms, the figure for “AAACACATATGGGTTCTAACCTGTTGCCTAG [AAACACACTAG_LTGcore_TA_RTGcore_CT] (site AAACACACTAG) (LTG core: TA, RTG core: CT)” is 0.104; for “AAACACATATGGGTTCTAACCTGTTGCCTTA [AAACACACTAG_LTGcore_TA_RTGcore_TA] (site AAACACACTAG) (LTG core: TA, RTG core: TA)” it is 0.146.
With “AAACAGTACTGGGTTCTAACCTGTTGCCTGT [AAACAGTCTAG_LTGcore_AC_RTGcore_AC] (site AAACAGTCTAG) (LTG core: AC, RTG core: AC)”, the “recombinant barcode read abundance (log10)” value worked out at 0.114.
Consider “AAACAGTAGTGGGTTCTAACCTGTTGCCTAG [AAACAGTCTAG_LTGcore_AG_RTGcore_CT] (site AAACAGTCTAG) (LTG core: AG, RTG core: CT)”, for which the “recombinant barcode read abundance (log10)” value is 0.0711.
In the case of “AAACAGTCTTGGGTTCTAACCTGTTGCCTCA [AAACAGTCTAG_LTGcore_CT_RTGcore_TG] (site AAACAGTCTAG) (LTG core: CT, RTG core: TG)”, the “recombinant barcode read abundance (log10)” value was 0.601.
In the case of “AAACAGTCTTGGGTTCTAACCTGTTGCCTGC [AAACAGTCTAG_LTGcore_CT_RTGcore_GC] (site AAACAGTCTAG) (LTG core: CT, RTG core: GC)”, the “recombinant barcode read abundance (log10)” value came to 1.44.
Take “AAACAGTCTTGGGTTCTAACCTGTTGCCTTG [AAACAGTCTAG_LTGcore_CT_RTGcore_CA] (site AAACAGTCTAG) (LTG core: CT, RTG core: CA)”: the “recombinant barcode read abundance (log10)” value stood at 1.28.
Still for that read-out and setting: the result for “AAACAGTTCTGGGTTCTAACCTGTTGCCTAG [AAACAGTCTAG_LTGcore_TC_RTGcore_CT] (site AAACAGTCTAG) (LTG core: TC, RTG core: CT)” reads 0.0714; that for “AAACATGCGTGGGTTCTAACCTGTTGCCTAG [AAACATGCTAG_LTGcore_CG_RTGcore_CT] (site AAACATGCTAG) (LTG core: CG, RTG core: CT)”, 0.0702; that for “AAACATGCTTGGGTTCTAACCTGTTGCCTAA [AAACATGCTAG_LTGcore_CT_RTGcore_TT] (site AAACATGCTAG) (LTG core: CT, RTG core: TT)”, 0.344.
With “AAACATGCTTGGGTTCTAACCTGTTGCCTCC [AAACATGCTAG_LTGcore_CT_RTGcore_GG] (site AAACATGCTAG) (LTG core: CT, RTG core: GG)”, the “recombinant barcode read abundance (log10)” value was found to be 0.177.
On the same count and under the same terms, the result for “AAACATGCTTGGGTTCTAACCTGTTGCCTGG [AAACATGCTAG_LTGcore_CT_RTGcore_CC] (site AAACATGCTAG) (LTG core: CT, RTG core: CC)” reads 0.713; that for “AAACATGGATGGGTTCTAACCTGTTGCCTAG [AAACATGCTAG_LTGcore_GA_RTGcore_CT] (site AAACATGCTAG) (LTG core: GA, RTG core: CT)”, 0.0906.
In the case of “AAACATGTATGGGTTCTAACCTGTTGCCTTA [AAACATGCTAG_LTGcore_TA_RTGcore_TA] (site AAACATGCTAG) (LTG core: TA, RTG core: TA)”, the “recombinant barcode read abundance (log10)” value is 0.0913.
With “ACGGGACATTGGGTTCTAACCTGTTGCAGAT [ACGGGACCTCT_LTGcore_AT_RTGcore_AT] (site ACGGGACCTCT) (LTG core: AT, RTG core: AT)”, the “recombinant barcode read abundance (log10)” value was determined as 0.134.
As to “ACGGGACCGTGGGTTCTAACCTGTTGCAGCG [ACGGGACCTCT_LTGcore_CG_RTGcore_CG] (site ACGGGACCTCT) (LTG core: CG, RTG core: CG)”, the “recombinant barcode read abundance (log10)” value is 0.086.
Same read-out and setting: the figure for “ACGGGACCTTGGGTTCTAACCTGTTGCAGAA [ACGGGACCTCT_LTGcore_CT_RTGcore_TT] (site ACGGGACCTCT) (LTG core: CT, RTG core: TT)” is 0.387; for “ACGGGACCTTGGGTTCTAACCTGTTGCAGCT [ACGGGACCTCT_LTGcore_CT_RTGcore_AG] (site ACGGGACCTCT) (LTG core: CT, RTG core: AG)” it is 1.07.
Still for that read-out and setting: the result for “ACGGGACCTTGGGTTCTAACCTGTTGCAGGC [ACGGGACCTCT_LTGcore_CT_RTGcore_GC] (site ACGGGACCTCT) (LTG core: CT, RTG core: GC)” reads 0.944; that for “ACGGGACTATGGGTTCTAACCTGTTGCAGTA [ACGGGACCTCT_LTGcore_TA_RTGcore_TA] (site ACGGGACCTCT) (LTG core: TA, RTG core: TA)”, 0.0155; that for “AGGAGGTAATGGGTTCTAACCTGTTGCCTTT [AGGAGGTCTAG_LTGcore_AA_RTGcore_AA] (site AGGAGGTCTAG) (LTG core: AA, RTG core: AA)”, 0.0693.
On to “AGGAGGTAGTGGGTTCTAACCTGTTGCCTCT [AGGAGGTCTAG_LTGcore_AG_RTGcore_AG] (site AGGAGGTCTAG) (LTG core: AG, RTG core: AG)”, for which the “recombinant barcode read abundance (log10)” value worked out at 0.0957.
For the sequence “AGGAGGTATTGGGTTCTAACCTGTTGCCTAG [AGGAGGTCTAG_LTGcore_AT_RTGcore_CT] (site AGGAGGTCTAG) (LTG core: AT, RTG core: CT)”, the “recombinant barcode read abundance (log10)” value was 0.214.
“AGGAGGTCCTGGGTTCTAACCTGTTGCCTAG [AGGAGGTCTAG_LTGcore_CC_RTGcore_CT] (site AGGAGGTCTAG) (LTG core: CC, RTG core: CT)”: the “recombinant barcode read abundance (log10)” value was found to be 0.336.
In the case of “AGGAGGTCGTGGGTTCTAACCTGTTGCCTAG [AGGAGGTCTAG_LTGcore_CG_RTGcore_CT] (site AGGAGGTCTAG) (LTG core: CG, RTG core: CT)”, the “recombinant barcode read abundance (log10)” value is 0.0327.
As to “AGGAGGTCTTGGGTTCTAACCTGTTGCCTCC [AGGAGGTCTAG_LTGcore_CT_RTGcore_GG] (site AGGAGGTCTAG) (LTG core: CT, RTG core: GG)”, the “recombinant barcode read abundance (log10)” value stood at 0.0685.
Still for that read-out and setting: the result for “AGGAGGTCTTGGGTTCTAACCTGTTGCCTCT [AGGAGGTCTAG_LTGcore_CT_RTGcore_AG] (site AGGAGGTCTAG) (LTG core: CT, RTG core: AG)” reads 1.02.

Another series can be described thus: recombinant barcode read abundance after kanamycin selection (control-corrected) (log10(CPM+1)); higher = more efficient recombination; sequences stand for … in AGTGCAGAGAAAATCGGCCAGTTTTCTCTGCCTGCAGTCCGCATGCCGT…AGATTTATGCAGCGGACTGCCTTTCTCCCAAAGTGATAAACCGGACAGTATCATGGACCGGTTTTCCCGGTAATCCGTATTTGCAAGGTTGGTTTCACT; site = the 11-nt target. In a few lines:
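Recombination efficiency draws on barcodes counted at recombinant junctions in a pooled E. coli screen of targets paired with IS621 bridge RNA target-binding loops. The counts were converted to counts per million, averaged and corrected against the chloramphenicol/ampicillin LB agar control, then reported as log10(CPM+1). Selection plates held chloramphenicol/ampicillin/kanamycin with 0.1 mM IPTG, with two replicates per condition.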
In the case of “TTGGGGTCTTGGGTTCTAACCTGTTGCCT (site GTAGGGTCTAG)”, the “recombinant barcode read abundance (log10)” value turned out to be 0.155.
Same read-out and setting: the figure for “TTGGGGTCTTGGGTTCTAACCTGTTGCCT (site TTGGGGTCTAG)” is 1.65.
Consider “TTGGGTCCTTGGGTTCTAACCTGTTGCGT (site TTGAGTCCTAG)”, for which the “recombinant barcode read abundance (log10)” value was found to be 0.15.
As to “TTGGGTCCTTGGGTTCTAACCTGTTGCGT (site TTGGGTCCTAC)”, the “recombinant barcode read abundance (log10)” value amounted to 3.32.
Turning to “TTGGTCACTTGGGTTCTAACCTGTTGCCA (site GGAAGGCCTAA)”, the “recombinant barcode read abundance (log10)” value amounted to 0.0841.
Turning to “TTGGTCACTTGGGTTCTAACCTGTTGCCA (site TTGGTCACTTG)”, the “recombinant barcode read abundance (log10)” value turned out to be 0.525.
Turning to “TTGGTCCCTTGGGTTCTAACCTGTTGCCT (site TTGGTACCTAG)”, the “recombinant barcode read abundance (log10)” value was 0.565.
On to “TTGGTCCCTTGGGTTCTAACCTGTTGCCT (site TTGGTCCCTAG)”, for which the “recombinant barcode read abundance (log10)” value is 2.93.
As for “TTGGTCCCTTGGGTTCTAACCTGTTGCCT (site TTGGTGCCTAG)”, the “recombinant barcode read abundance (log10)” value was determined as 0.0514.
On the same count and under the same terms, the result for “TTGGTCCCTTGGGTTCTAACCTGTTGCCT (site TTGGTTCCTAG)” reads 0.131.
“TTGTATACTTGGGTTCTAACCTGTTGCCT (site GTGTCTACTAG)”: the “recombinant barcode read abundance (log10)” value was 0.129.
Take “TTGTATACTTGGGTTCTAACCTGTTGCCT (site TTGTATACTAG)”: the “recombinant barcode read abundance (log10)” value is 0.612.
On the same count and under the same terms, the figure for “TTGTGAGCTTGGGTTCTAACCTGTTGCGG (site TTGTAAGCTCG)” is 0.037.
For the sequence “TTGTGAGCTTGGGTTCTAACCTGTTGCGG (site TTGTGAGCTCC)”, the “recombinant barcode read abundance (log10)” value worked out at 1.15.
